Results from patent US20250223281A1, “ANTIDIABETIC COMPOUNDS AND COMPOSITIONS” (REZUBIO PHARMACEUTICALS CO., LTD, priority 2022, published 2025).

Target: T1, GPR40 (Homo sapiens, UniProt O14842)
T1 construct: expressed in transfected cells; host or cells: HEK293 cells stably expressing GPR40 (Hygromycin selection)
Assay: IP1 accumulation assay in HEK293 cells stably expressing GPR40
Type: cell-based
Method in brief: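 HEK293 cells stably expressing human GPR40 were incubated with compounds (10-point, 3-fold dilution series) for 2 h at 37 °C, then IP1 was detected by HTRF (665/615 nm ratio). Effect was normalised to DMSO blank and AMG-1638 as 100%, and EC50 was derived from dose curves.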

[1] = IP1 accumulation, HEK293 cells stably expressing GPR40, 2 hours at 37° C., % effect relative to AMG-1638, table of Biological Example 1
[2] = Tables A-1a to A-7b (structure-property relationship), obtained by methods of Biological Example 1
[3] = Table A-8 (additional examples), obtained by methods of Biological Example 1

T1 sequence (O14842 whole entry): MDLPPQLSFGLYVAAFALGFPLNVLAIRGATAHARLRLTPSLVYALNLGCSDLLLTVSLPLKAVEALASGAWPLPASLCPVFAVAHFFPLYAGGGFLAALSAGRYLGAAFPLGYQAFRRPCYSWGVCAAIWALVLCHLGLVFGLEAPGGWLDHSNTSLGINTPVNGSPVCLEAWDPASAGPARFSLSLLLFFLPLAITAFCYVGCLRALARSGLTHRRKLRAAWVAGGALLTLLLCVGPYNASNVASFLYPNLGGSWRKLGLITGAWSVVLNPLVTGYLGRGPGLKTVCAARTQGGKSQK

Row | SMILES | EC50 [1] [nM] | EC50 [2] [nM] | EC50 [3] [nM]
1 | COc1ccc(F)c(-c2ccc(COc3cccc([C@@H](CC(=O)O)C4CC4)c3)cc2CC(C)(C)Cc2cn(CCCCCCCCCCCCCCCC(=O)NCCN(CCC(=O)NCCN)CCC(=O)NCCN)nn2)c1 [Example 89] | 2.19 | 2.19 | 
2 | COc1ccc(C(=O)N(CC(C)(C)CCCCCCn2cc(CCCCCCCCCC(=O)NCCCN(CC(=O)O)CC(=O)O)nn2)c2cccc(C)n2)c(N2CCC(COc3cc([C@@H](CC(=O)O)C4CC4)ccn3)CC2)c1 [Example 204] | 7 |  | 
3 | COc1ccc(F)c(-c2ccc(COc3cccc([C@@H](CC(=O)O)C4CC4)c3)cc2CC(C)(C)Cn2cc(CCCCCCCCCCCCCCCC(=O)NCCCN(CC(=O)NCCN)CC(=O)NCCN)nn2)c1 [Example 153] | 6.64 |  | 
4 | COc1ccc(C(=O)N(CC(C)(C)CCCCCCn2cc(CCCCCCCCCCCCCCCCCC(=O)NCCCN(C)CC(=O)NCCN)nn2)c2cccc(C)n2)c(N2CCC(COc3cc([C@@H](CC(=O)O)C4CC4)ccn3)CC2)c1 [Example 149] | 0.09 |  | 
5 | COc1ccc(C(=O)N(CC(C)(C)CCCCCCn2cc(CCCCCCCCCCC(=O)NCC[N+](C)(CCC(=O)NCCN)CCC(=O)NCCN)nn2)c2cccc(C)n2)c(N2CCC(COc3cc([C@@H](CC(=O)O)C4CC4)ccn3)CC2)c1 [Example 54] | 1.71 | 1.71 | 
6 | COc1ccc(F)c(-c2ccc(COc3cccc([C@@H](CC(=O)O)C4CC4)c3)cc2CC(C)(C)Cn2cc(CCCCCCCCCCCCC(=O)NCCN(CCC(=O)NCCN)CCC(=O)NCCN)nn2)c1 [Example 16] | 460 | 460 | 706
7 | COc1ccc(F)c(-c2ccc(COc3cccc([C@@H](CC(=O)O)C4CC4)c3)cc2OC(C)(C)Cn2cc(CCCCCCCCCCCCCCCCCC(=O)NCCN(CCC(=O)NCCN)CCC(=O)NCCN)nn2)c1 [Example 31] | 2.28 |  | 
8 | COc1ccc(C(=O)N(CC(C)(C)CCn2cc(CCCCCCCCCC(=O)NCCCN(CC(=O)O)CC(=O)O)nn2)c2cccc(C)n2)c(N2CCC(COc3cc([C@@H](CC(=O)O)C4CC4)ccn3)CC2)c1 [Example 124] | 226 | 226 | 
9 | COc1ccc(F)c(-c2ccc(COc3cccc([C@@H](CC(=O)O)C4CC4)c3)cc2OC(C)(C)Cn2cc(CCCCCCCCCCCCCCC(=O)NCCN(CCC(=O)NCCN)CCC(=O)NCCN)nn2)c1 [Example 138] | 6.87 |  | 
10 | COc1ccc(F)c(-c2ccc(COc3cccc([C@@H](CC(=O)O)C4CC4)c3)cc2CC(C)(C)Cn2cc(CCCCCCCCCCC(=O)NCCN(CCC(=O)NCCN)CCC(=O)NCCN)nn2)c1 [Example 56] | 1760 | 1760 | 
11 | COc1ccc(F)c(-c2ccc(COc3cccc([C@@H](CC(=O)O)C4CC4)c3)cc2CC(C)(C)Cc2cn(CCCCCCCCCCCCCC(=O)NCC[N+](C)(CCC(=O)NCCN)CCC(=O)NCCN)nn2)c1 [Example 22] | 49 | 49 | 
12 | COc1ccc(C(=O)N(CC(C)(C)CCn2cc(CCCCCCCCCCC(=O)NCC[N+](C)(CCC(=O)NCCN)CCC(=O)NCCN)nn2)c2cccc(C)n2)c(N2CCC(COc3cc([C@@H](CC(=O)O)C4CC4)ccn3)CC2)c1 [Example 113] | 6.27 | 6.27 | 
13 | COc1ccc(F)c(-c2ccc(COc3cccc([C@@H](CC(=O)O)C4CC4)c3)cc2CC(C)(C)Cn2cc(CCCCCCCCCCCCCCCCCC(=O)NCCC[N+](C)(CC(=O)NCCN)CC(=O)NCCN)nn2)c1 [Example 157] | 0.54 |  | 
14 | C[C@H](C(=O)O)[C@H](c1ccc2c(c1)O[C@@H](C1CCN(Cc3cc(-c4cn(CCCCCCCCCCCC(=O)NCC[N+](C)(CCC(=O)NCCN)CCC(=O)NCCN)nn4)ccc3OC(F)(F)F)CC1)CC2)C1CC1 [Example 83] | 651 | 650 | 
15 | COc1ccc(C(=O)N(CC(C)(C)CCn2cc(CCCCCCCCCC(=O)NCCN(CCC(=O)NCCN)CCC(=O)NCCN)nn2)c2cccc(C)n2)c(N2CCC(COc3cc([C@@H](CC(=O)O)C4CC4)ccn3)CC2)c1 [Example 197] | 84.3 | 84.3 | 84
16 | COc1ccc(F)c(-c2ccc(COc3cccc([C@@H](CC(=O)O)C4CC4)c3)cc2CC(C)(C)Cn2cc(CCCCC(=O)NCCN(CCC(=O)NCCN)CCC(=O)NCCN)nn2)c1 [Example 219] | > 10000 |  | 
17 | COc1ccc(F)c(-c2ccc(COc3cccc([C@@H](CC(=O)O)C4CC4)c3)cc2OC(C)(C)COCc2cn(CCCCCCCCCCCCCC(=O)NCCN(CCC(=O)NCCN)CCC(=O)NCCN)nn2)c1 [Example 25] | 132 |  | 
18 | COc1ccc(C(=O)N(CC(C)(C)CCn2cc(CCCCCCCCCCC(=O)NCCN(CCC(=O)NCCN)CCC(=O)NCCN)nn2)c2cccc(C)n2)c(N2CCC(COc3cc([C@@H](CC(=O)O)C4CC4)ccn3)CC2)c1 [Example 112] | 14.9 | 14.9 | 
19 | COc1ccc(C(=O)N(CC(C)(C)CCCCCCn2cc(CCCCCCCCCCCCCC(=O)NCCC[N+](C)(CC(=O)[O-])CC(=O)O)nn2)c2cccc(C)n2)c(N2CCC(COc3cc([C@@H](CC(=O)O)C4CC4)ccn3)CC2)c1 (stereo partly drawn) [Example 210] | 0.54 |  | 
20 | COc1ccc(F)c(-c2ccc(COc3cccc([C@@H](CC(=O)O)C4CC4)c3)cc2CC(C)(C)Cn2cc(COCCOCCOCC(=O)NCC[N+](C)(CCC(=O)NCCN)CCC(=O)NCCN)nn2)c1 [Example 168] | > 10000 |  | > 10000
21 | COc1ccc(C(=O)N(CC(C)(C)CCn2cc(CCCCCCC(=O)NCC[N+](C)(CCC(=O)NCCN)CCC(=O)NCCN)nn2)c2cccc(C)n2)c(N2CCC(COc3cc([C@@H](CC(=O)O)C4CC4)ccn3)CC2)c1 [Example 200] | > 10000 | > 10000 | 
22 | COc1ccc(F)c(-c2ccc(COc3cccc([C@@H](CC(=O)O)C4CC4)c3)cc2C(C)(C)c2cn(CCCCCCCCCCCCCC(=O)NCCN(CCC(=O)NCCN)CCC(=O)NCCN)nn2)c1 [Example 8] | > 1000 |  | 
23 | COc1ccc(F)c(-c2ccc(COc3cccc([C@@H](CC(=O)O)C4CC4)c3)cc2CC(C)(C)Cn2cc(CCCCCCCCCCCC(=O)NCCC[N+](C)(CC(=O)[O-])CC(=O)O)nn2)c1 (stereo partly drawn) [Example 122] | 1000 |  | 

The next lines start with the values.

Row | EC50 [1] [nM] | EC50 [2] [nM] | EC50 [3] [nM] | SMILES
24 | 0.49 |  |  | C[C@H](C(=O)O)[C@H](c1ccc2c(c1)O[C@@H](C1CCN(Cc3cc(-n4cc(CCCCCCCCCCCCCCCCCC(=O)NCC[N+](C)(C)CCCS(=O)(=O)[O-])nn4)ccc3OC(F)(F)F)CC1)CC2)C1CC1 [Example 66]
25 | 6.36 | 6.36 |  | COc1ccc(C(=O)N(CC(C)(C)CCn2cc(CCCCCCCCCCCC(=O)NCCC[N+](C)(CC(=O)[O-])CC(=O)O)nn2)c2cccc(C)n2)c(N2CCC(COc3cc([C@@H](CC(=O)O)C4CC4)ccn3)CC2)c1 (stereo partly drawn) [Example 127]
26 | 0.65 | 0.65 |  | C[C@H](C(=O)O)[C@H](c1ccc2c(c1)O[C@@H](C1CCN(Cc3cc(-c4cn(CCCCCCCCCCCCCCCCCC(=O)NCC[N+](C)(CCC(=O)NCCN)CCC(=O)NCCN)nn4)ccc3OC(F)(F)F)CC1)CC2)C1CC1 [Example 7]
27 | > 10000 |  | > 10000 | COc1ccc(F)c(-c2ccc(COc3cccc([C@@H](CC(=O)O)C4CC4)c3)cc2CC(C)(C)Cn2cc(COCCOCCOCCOCC(=O)NCC[N+](C)(CCC(=O)NCCN)CCC(=O)NCCN)nn2)c1 [Example 169]
28 | 1.98 |  |  | COc1ccc(F)c(-c2ccc(COc3cccc([C@@H](CC(=O)O)C4CC4)c3)cc2OC(C)(C)Cn2cc(CCCCCCCCCCCCCCCCCC(=O)NCC[N+](C)(CCC(=O)NCCN)CCC(=O)NCCN)nn2)c1 [Example 32]
29 | 21.5 |  |  | COc1ccc(F)c(-c2ccc(COc3cccc([C@@H](CC(=O)O)C4CC4)c3)cc2C(C)(C)c2cn(CCCCCCCCCCCCCCCC(=O)NCC[N+](C)(CCC(=O)NCCN)CCC(=O)NCCN)nn2)c1 [Example 103]
30 | 8400 | > 10000 |  | C[C@H](C(=O)O)[C@H](c1ccc2c(c1)O[C@@H](C1CCN(Cc3cc(-c4cn(CCCCCCCCCC(=O)NCCN(CCC(=O)NCCN)CCC(=O)NCCN)nn4)ccc3OC(F)(F)F)CC1)CC2)C1CC1 [Example 77]
31 | 1950 | 1950 |  | COc1ccc(F)c(-c2ccc(COc3cccc([C@@H](CC(=O)O)C4CC4)c3)cc2CC(C)(C)Cn2cc(CCCCCCC(=O)NCCN(CCC(=O)NCCN)CCC(=O)NCCN)nn2)c1 [Example 94]
32 | 0.12 |  |  | C[C@H](C(=O)O)[C@H](c1ccc2c(c1)O[C@@H](C1CCN(Cc3cc(-n4cc(CCCCCCCCCCCCCCCCCC(=O)NCCC[N+](C)(C)CC(=O)NCCN)nn4)ccc3OC(F)(F)F)CC1)CC2)C1CC1 [Example 146]
33 | 1 | 1.79 |  | COc1ccc(C(=O)N(CC(C)(C)CCCCCCn2cc(CCCCCCCCCCC(=O)NCCN(CCC(=O)NCCN)CCC(=O)NCCN)nn2)c2cccc(C)n2)c(N2CCC(COc3cc([C@@H](CC(=O)O)C4CC4)ccn3)CC2)c1 [Example 68]
34 | 3600 |  |  | COc1ccc(F)c(-c2ccc(COc3cccc([C@@H](CC(=O)O)C4CC4)c3)cc2C(C)(C)c2cn(CCCCCCCCCC(=O)NCCN(CCC(=O)NCCN)CCC(=O)NCCN)nn2)c1 [Example 134]
35 | 1310 |  |  | COc1ccc(F)c(-c2ccc(COc3cccc([C@@H](CC(=O)O)C4CC4)c3)cc2CC(C)(C)Cn2cc(CCCCCCCCCCCCCC(=O)NCCC[N+](C)(CC(=O)O)CC(=O)O)nn2)c1 [Example 107]
36 | 19.9 | 19.9 |  | COc1ccc(F)c(-c2ccc(COc3cccc([C@@H](CC(=O)O)C4CC4)c3)cc2CC(C)(C)Cn2cc(CCCCCCCCCCCCCCC(=O)NCCN(CCC(=O)NCCN)CCC(=O)NCCN)nn2)c1 [Example 49]
37 | 112 |  |  | CCCCCNC(=O)CCCCCCCCCCCCCCCCCc1cn(CC(C)(C)Cc2cc(COc3cccc([C@@H](CC(=O)O)C4CC4)c3)ccc2-c2cc(OC)ccc2F)nn1 [Example 76]
38 | > 10000 | > 10000 |  | COc1ccc(F)c(-c2ccc(COc3cccc([C@@H](CC(=O)O)C4CC4)c3)cc2CC(C)(C)Cn2cc(CCCCCCCCC(=O)NCCN(CCC(=O)NCCN)CCC(=O)NCCN)nn2)c1 [Example 220]
